Target: SIK2 (Homo sapiens (Human), UniProt Q9H0K1)
Test: SIK2 Enzymatic Assay Version 2 (High ATP)
Assay type: biochemical
Details: 3 mM ATP and 200 μM HDAC5tide final, ADP-Glo Max luminescence
How it was run: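 Luminescent ADP-Glo Max read-out: depletion reagent 2 h, then detection reagent 1 h. Before the reaction, compounds were incubated 30 min with enzyme added at 6 nM (twice final concentration), with all steps at room temperature.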

Chain of SIK2 (Q9H0K1 whole entry, species assumed): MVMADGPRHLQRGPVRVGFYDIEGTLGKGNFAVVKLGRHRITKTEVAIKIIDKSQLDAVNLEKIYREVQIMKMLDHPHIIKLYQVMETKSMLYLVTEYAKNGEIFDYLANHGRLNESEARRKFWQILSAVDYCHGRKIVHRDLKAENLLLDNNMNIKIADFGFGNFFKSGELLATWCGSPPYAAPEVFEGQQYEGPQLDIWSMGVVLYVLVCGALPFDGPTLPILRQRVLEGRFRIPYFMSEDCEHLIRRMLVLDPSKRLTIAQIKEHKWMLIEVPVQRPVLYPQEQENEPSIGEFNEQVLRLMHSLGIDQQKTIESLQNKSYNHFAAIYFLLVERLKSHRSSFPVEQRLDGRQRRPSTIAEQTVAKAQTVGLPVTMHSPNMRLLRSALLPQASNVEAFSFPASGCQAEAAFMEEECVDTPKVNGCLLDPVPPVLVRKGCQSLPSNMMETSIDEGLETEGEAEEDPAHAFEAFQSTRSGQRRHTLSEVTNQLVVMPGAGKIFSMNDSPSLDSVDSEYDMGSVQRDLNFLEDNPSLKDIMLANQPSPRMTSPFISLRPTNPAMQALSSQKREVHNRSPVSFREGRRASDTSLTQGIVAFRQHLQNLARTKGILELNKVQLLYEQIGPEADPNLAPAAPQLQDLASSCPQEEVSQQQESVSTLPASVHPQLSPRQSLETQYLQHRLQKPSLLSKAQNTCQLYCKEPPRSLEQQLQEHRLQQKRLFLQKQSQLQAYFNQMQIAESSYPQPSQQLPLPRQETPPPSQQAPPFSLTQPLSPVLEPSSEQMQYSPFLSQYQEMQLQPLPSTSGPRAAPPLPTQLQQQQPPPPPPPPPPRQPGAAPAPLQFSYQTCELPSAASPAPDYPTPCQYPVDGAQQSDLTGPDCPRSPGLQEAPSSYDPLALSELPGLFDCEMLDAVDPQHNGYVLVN

SMILES | IC50 [nM]
Cc1cnc(Nc2cc3cc(-c4c(O[C@@H]5CN[C@H](C)C5)noc4C)ccn3n2)cn1 [Example 322, 5-[5-methyl-3-[(3S,5R)-5-methylpyrrolidin-3-yl]oxy-isoxazol-4-yl]-N-(5-methylpyrazin-2-yl)pyrazolo[1,5-a]pyridin-2-amine] | 46.3
CN1C[C@@H](F)[C@@H](Oc2cnn(C)c2-c2ccn3nc(NC(=O)C4CC4)cc3c2)C1 [Example 499] | 720
CN1CC[C@H](Oc2cnn(C)c2-c2ccn3nc(Nc4ccnc(C5CC5)n4)cc3c2)C1 [Example 281, N-(2-cyclopropylpyrimidin-4-yl)-5-[2-methyl-4-[(3S)-1-methylpyrrolidin-3-yl]oxy-pyrazol-3-yl]pyrazolo[1,5-a]pyridin-2-amine] | 29.1
CN1CC[C@H](OCc2cnn(C)c2-c2ccn3nc(NC(=O)C4CC4)cc3c2)C1 [Example 464, N-[5-[2-methyl-4-[[(3S)-1-methylpyrrolidin-3-yl]oxymethyl]pyrazol-3-yl]pyrazolo[1,5-a]pyridin-2-yl]cyclopropanecarboxamide] | 82.8
COc1cc(Nc2cc3cc(-c4c(OC[C@H]5CCN5C)cnn4C)ccn3n2)ncn1 [Example 127, N-(6-methoxypyrimidin-4-yl)-5-[2-methyl-4-[[(2R)-1-methylazetidin-2-yl]methoxy]pyrazol-3-yl]pyrazolo[1,5-a]pyridin-2-amine] | 11
CCN1CC[C@H]1COc1cnn(C)c1-c1ccn2nc(Nc3cc(C)nc(C(F)(F)F)n3)cc2c1 [Example 168, 5-[4-[[(2S)-1-ethylazetidin-2-yl]methoxy]-2-methyl-pyrazol-3-yl]-N-[6-methyl-2-(trifluoromethyl)pyrimidin-4-yl]pyrazolo[1,5-a]pyridin-2-amine] | 23
CCN1CC[C@@H]1COc1cnn(C(F)F)c1-c1ccn2nc(Nc3ccnc(OC)n3)cc2c1 [Example 481, 5-[2-(difluoromethyl)-4-[[(2R)-1-ethylazetidin-2-yl]methoxy]pyrazol-3-yl]-N-(2-methoxypyrimidin-4-yl)pyrazolo[1,5-a]pyridin-2-amine] | 17.6
Cn1ncc(OC[C@H]2NCC2(C)C)c1-c1ccn2nc(NC(=O)C3CC3)cc2c1 [Example 4, N-[5-[4-[[(2S)-3,3-dimethylazetidin-2-yl]methoxy]-2-methyl-pyrazol-3-yl]pyrazolo[1,5-a]pyridin-2-yl]cyclopropanecarboxamide] | 7.6
CN1CC[C@@H]1COc1cnn(C)c1-c1ccn2nc(Nc3cnc(C(F)(F)F)cn3)cc2c1 [Example 150, 5-[2-methyl-4-[[(2R)-1-methylazetidin-2-yl]methoxy]pyrazol-3-yl]-N-[5-(trifluoromethyl)pyrazin-2-yl]pyrazolo[1,5-a]pyridin-2-amine] | 7.6
CN1C[C@H](F)[C@H](Oc2cnn(C)c2-c2ccn3nc(NC(=O)C4CC4)cc3c2)C1 [Example 415, N-[5-[4-[(3R,4S)-4-fluoro-1-methyl-pyrrolidin-3-yl]oxy-2-methyl-pyrazol-3-yl]pyrazolo[1,5-a]pyridin-2-yl]cyclopropanecarboxamide] | 124
Cc1cncc(Nc2cc3cc(-c4c(OC[C@H]5CCN5)cnn4C)ccn3n2)n1 [Example 45, 5-[4-[[(2R)-azetidin-2-yl]methoxy]-2-methyl-pyrazol-3-yl]-N-(6-methylpyrazin-2-yl)pyrazolo[1,5-a]pyridin-2-amine] | 24.1
Cc1onc(OC[C@H]2C[C@H](N)C2)c1-c1ccn2nc(NC(=O)C3CC3)cc2c1 [Example 387, N-[5-[3-[(3-aminocyclobutyl)methoxy]-5-methyl-isoxazol-4-yl]pyrazolo[1,5-a]pyridin-2-yl]cyclopropanecarboxamide] | 85.8
CN1CC[C@@H]1COc1cnn(C)c1-c1ccn2nc(NC(=O)C3CC3(F)F)cc2c1 (stereo partly drawn) [Example 72, 2,2-difluoro-N-[5-[2-methyl-4-[[(2R)-1-methylazetidin-2-yl]methoxy]pyrazol-3-yl]pyrazolo[1,5-a]pyridin-2-yl]cyclopropanecarboxamide] | 52.1
C[C@@H]1C[C@H](Oc2cnn(C)c2-c2ccn3nc(NC(=O)C4CC4)cc3c2)CN1C [Example 336, N-[5-[4-[(3S,5R)-1,5-dimethylpyrrolidin-3-yl]oxy-2-methyl-pyrazol-3-yl]pyrazolo[1,5-a]pyridin-2-yl]cyclopropanecarboxamide] | 66.4
Cn1ncc(O[C@H]2CCNC2)c1-c1ccc2nc(NC(=O)C3CC3)cn2c1 [Example 471, N-[6-[2-methyl-4-[(3S)-pyrrolidin-3-yl]oxy-pyrazol-3-yl]imidazo[1,2-a]pyridin-2-yl]cyclopropanecarboxamide] | 55.8
CCN1CC[C@@H]1COc1cnn(C(F)F)c1-c1ccn2nc(Nc3cnn(C)c3)cc2c1 [Example 104, 5-[2-(difluoromethyl)-4-[[(2R)-1-ethylazetidin-2-yl]methoxy]pyrazol-3-yl]-N-(1-methylpyrazol-4-yl)pyrazolo[1,5-a]pyridin-2-amine] | 16.9
Cc1cc(Nc2cc3cc(-c4c(OC[C@H]5C[C@H](C)CN5)cnn4C)ccn3n2)nc(C)n1 [Example 446, N-(2,6-dimethylpyrimidin-4-yl)-5-[2-methyl-4-[[(2R,4S)-4-methylpyrrolidin-2-yl]methoxy]pyrazol-3-yl]pyrazolo[1,5-a]pyridin-2-amine] | 111
Cc1cncc(Nc2cc3cc(-c4c(OC[C@H]5CCN5CCF)cnn4C)ccn3n2)n1 [Example 278, 5-[4-[[(2R)-1-(2-fluoroethyl)azetidin-2-yl]methoxy]-2-methyl-pyrazol-3-yl]-N-(6-methylpyrazin-2-yl)pyrazolo[1,5-a]pyridin-2-amine] | 1
CN1CC[C@H](Oc2cnn(C)c2-c2ccn3nc(Nc4ccnc(C(F)(F)F)n4)cc3c2)C1 [Example 458, 5-[2-methyl-4-[(3S)-1-methylpyrrolidin-3-yl]oxy-pyrazol-3-yl]-N-[2-(trifluoromethyl)pyrimidin-4-yl]pyrazolo[1,5-a]pyridin-2-amine] | 167

Further lines, results first:

IC50 [nM] | SMILES
1 | Cc1cnnc(Nc2cc3cc(-c4c(OC[C@H]5CCN5C)cnn4C)ccn3n2)c1 [Example 141, 5-[2-methyl-4-[[(2R)-1-methylazetidin-2-yl]methoxy]pyrazol-3-yl]-N-(5-methylpyridazin-3-yl)pyrazolo[1,5-a]pyridin-2-amine]
1.1 | CCN1CC[C@@H]1COc1cnn(C(F)F)c1-c1ccn2nc(Nc3cc(C)nc(C)n3)cc2c1 [Example 479, 5-[2-(difluoromethyl)-4-[[(2R)-1-ethylazetidin-2-yl]methoxy]pyrazol-3-yl]-N-(2,6-dimethylpyrimidin-4-yl)pyrazolo[1,5-a]pyridin-2-amine]
3.5 | Cn1ncc(OC[C@H]2CCN2CCF)c1-c1ccn2nc(NC(=O)C3CC3)cc2c1 [Example 241, N-[5-[4-[[(2R)-1-(2-fluoroethyl)azetidin-2-yl]methoxy]-2-methyl-pyrazol-3-yl]pyrazolo[1,5-a]pyridin-2-yl]cyclopropanecarboxamide]
7.3 | CN1C[C@@H](c2ccccc2)C[C@@H]1COc1cnn(C)c1-c1ccn2nc(NC(=O)C3CC3)cc2c1 [Example 258, N-[5-[2-methyl-4-[[(2R,4R)-1-methyl-4-phenyl-pyrrolidin-2-yl]methoxy]pyrazol-3-yl]pyrazolo[1,5-a]pyridin-2-yl]cyclopropanecarboxamide]
7.3 | Cn1ncc(COC2(C(F)(F)F)CNC2)c1-c1ccn2nc(NC(=O)C3CC3)cc2c1 [Example 186, N-[5-[2-methyl-4-[[3-(trifluoromethyl)azetidin-3-yl]oxymethyl]pyrazol-3-yl]pyrazolo[1,5-a]pyridin-2-yl]cyclopropanecarboxamide]
3.6 | CCN1CC[C@@H]1COc1cnn(C)c1-c1ccn2nc(NC(=O)C3CC3)cc2c1 [Example 52, N-[5-[4-[[(2R)-1-ethylazetidin-2-yl]methoxy]-2-methyl-pyrazol-3-yl]pyrazolo[1,5-a]pyridin-2-yl]cyclopropanecarboxamide]
5.8 | CCN1CC[C@@H]1COc1cnn(C)c1-c1ccn2nc(NC(=O)[C@H]3C[C@@H]3C)cc2c1 [Example 25, (1S,2S)—N-[5-[4-[[(2R)-1-ethylazetidin-2-yl]methoxy]-2-methyl-pyrazol-3-yl]pyrazolo[1,5-a]pyridin-2-yl]-2-methyl-cyclopropanecarboxamide]
1.3 | CN1CC[C@@H]1COc1cnn(C)c1-c1ccn2nc(Nc3ccc4cnccc4n3)cc2c1 [Example 125, N-[5-[2-methyl-4-[[(2R)-1-methylazetidin-2-yl]methoxy]pyrazol-3-yl]pyrazolo[1,5-a]pyridin-2-yl]-1,6-naphthyridin-2-amine]
1 | COc1nnc(Nc2cc3cc(-c4c(OC[C@H]5CCN5C)cnn4C)ccn3n2)cc1C [Example 121, N-(6-methoxy-5-methyl-pyridazin-3-yl)-5-[2-methyl-4-[[(2R)-1-methylazetidin-2-yl]methoxy]pyrazol-3-yl]pyrazolo[1,5-a]pyridin-2-amine]
0.9 | Cc1cc(Nc2cc3cc(-c4c(OC[C@H]5CCN5CCF)cnn4C)ccn3n2)nc(C)n1 [Example 274, N-(2,6-dimethylpyrimidin-4-yl)-5-[4-[[(2R)-1-(2-fluoroethyl)azetidin-2-yl]methoxy]-2-methyl-pyrazol-3-yl]pyrazolo[1,5-a]pyridin-2-amine]
2.4 | CN1CC[C@@H]1COc1cnn(C)c1-c1ccn2nc(Nc3ccc(C(=O)NCC(C)(C)O)cn3)cc2c1 [Example 106, N-(2-hydroxy-2-methyl-propyl)-6-[[5-[2-methyl-4-[[(2R)-1-methylazetidin-2-yl]methoxy]pyrazol-3-yl]pyrazolo[1,5-a]pyridin-2-yl]amino]pyridine-3-carboxamide]
0.9 | CCN1CC[C@@H]1COc1cnn(C)c1-c1ccn2nc(Nc3cnc(C)cn3)cc2c1 [Example 21, (R)-5-(4-((1-Ethylazetidin-2-yl)methoxy)-1-methyl-1H-pyrazol-5-yl)-N-(5-methylpyrazin-2-yl)pyrazolo[1,5-a]pyridin-2-amine]
